Laboratory results: patent US11091476B2, “Protein kinase inhibitors, preparation method and medical use thereof” (Gan & Lee Pharmaceuticals, priority 2015, dated 2021)

Legend:
CDK6/CyclinD3 = CDK6/CyclinD3 (Homo sapiens (Human), UniProt Q00534); test: CDK kinase inhibitory activity, ADP-Glo Kinase Assay, CDK6/CyclinD3; assay type: biochemical; settings: for CDK1/CDK6 / CDK9/CDK6 / Pim-1/CDK6: ratio of IC50s; for CDK1/CDK6: selectivity for CDK6 over CDK1; for CDK9/CDK6: selectivity for CDK6 over CDK9; for Pim-1/CDK6: selectivity for CDK6 over Pim-1
Procedure: (§1) Measurement of CDK kinase inhibitory activity of the compounds of this disclosure.
(§2) In vitro inhibitory effect of the compounds of the disclosure on CDK (CDK1, CDK4 and CDK6) kinase activity was tested by the following method.
(§3) 1.1 Instrument and Kit Information
(§4) 1.2 Experimental Preparation • 1.2.1 Preparation of Kinase Reaction Buffer I: The 5×Reaction Buffer A (Promega; V307A-C) provided in the kit was mixed and diluted with MILLI-Q® H2O and 0.1 M DTT (dithiothreitol) to give 4× kinase buffer, and then MILLI-Q® H2O was further added to finally formulate the solution into 1× Kinase buffer.
(§5) 1 μl of 10 mM standard substance stock solution was taken and added to 9 μl of kinase reaction buffer I and mixed well; then 90 μl of kinase reaction buffer I was added and mixed well; then 100 μl of kinase reaction buffer I was added and mixed well. The final concentration was 50 μM. • b. 40 μl of kinase reaction buffer II was added into B2 to B10 of a 96-well plate, and 50 μl of the above solution was added into B1; • c. 10 μl of solution was taken from well B1, added into B2, and mixed well; then 10 μl of the resulting solution was taken and added into B3, and dilution was carried out in sequence to B9, so as to obtain control solutions that are diluted by 5-fold sequentially. • (2) Preparation of test compound solution: • a. Test compound solutions at a certain concentration were taken, respectively, diluted with kinase reaction buffer I to a final concentration of 50 μM compound solution; • b. 40 μl of kinase reaction buffer II was added into H2 to H10 of the 96-well plate; and 50 μl of the above solution was added into H1; • c. 10 μl of solution was taken from well H1, added into H2, and mixed well; then 10 μl of the resulting solution was taken and added into H3, and dilution was carried out in sequence to H9, so as to obtain test compound solutions that are diluted by 5-fold sequentially. • 1.2.4 Preparation of a mixed solution of reaction substrate and ATP: • a. Preparation of ATP solution: • 200 μl of 0.1 mM ATP solution: 2 μl of 10 mM ATP was added to 198 μl of kinase reaction buffer I; • 300 μl of 50 μM ATP solution: 150 μl of kinase reaction buffer I was added to 150 μl of the above 0.1 mM ATP solution; • b. Preparation of 300 μl of reaction substrate solution: • 150 μl 1 μg/μl reaction substrate stock solution was added to 150 μl kinase reaction buffer I, and mixed well; • c. The above a/b solutions were mixed to obtain mixed solutions, respectively.
(§6) 1.3 Experimental process: • 1.3.1: 2 μl of compound solutions of various concentrations were taken, added to a 384-well plate, and centrifuged 3 minutes; • 1.3.2: 4 μl of kinase solution was added to each well, centrifuged at 5000 rpm and 18° C. for 10 minutes, and shaken on a plate shaker for 10 minutes; • 1.3.3: 4 μl of mixed solution of substrate and ATP was added to each well, centrifuged at 5000 rpm and 18° C. for 10 minutes, and shaken on a plate shaker at 37° C. for 90 minutes; • 1.3.4: The 384-well plate was taken out, and allowed to stand to room temperature; • 1.3.5: 10 μl of ADP-GLO™ reagent was added to each well, centrifuged at 5000 rpm and 18° C. for 18 minutes, and shaken on a plate shaker at 25° C. for 40 minutes, and then the reaction was stopped; • 1.3.6: 20 μl of kinase detection reagent was added to each well, centrifuged at 5000 rpm and 18° C. for 10 minutes, and shaken on a plate shaker at 25° C. for 30 minutes; and • 1.3.7: M1000pro MICROPLATE READER was used to read […] values.
(§7) The inhibition rate of each compound at each concentration point was calculated by the formula as follows and curve fitting was performed by GraphPad Prism 5 software to obtain the IC50 value.

Pim-1 = Pim-1 (Homo sapiens (Human), UniProt P11309); test: Kinase inhibitory activity on Pim-1; assay type: biochemical
Procedure: as §4, §5, §6, §7

CDK9/CyclinD3 = CDK9/CyclinD3 (Homo sapiens (Human), UniProt P50750); test: Kinase inhibitory activity, ADP-Glo Kinase Assay, CDK9/CyclinD3; assay type: biochemical
Procedure: as §3, §4, §5, §6, §7

CDK1/CyclinA2 = CDK1/CyclinA2 (Homo sapiens (Human), UniProt P06493); test: CDK kinase inhibitory activity, ADP-Glo Kinase Assay, CDK1/CyclinA2; assay type: biochemical
Procedure: as §1, §2, §3, §4, §5, §6, §7

CDK4/CyclinE1 = CDK4/CyclinE1 (Homo sapiens, UniProt P11802); settings: read-out: CDK4/CyclinE1 IC50
Procedure: as §1, §2, §3, §4
The final concentration was 50 μM. • b. 40 μl of kinase reaction buffer II was added into B2 to B10 of a 96-well plate, and 50 μl of the above solution was added into B1; • c. […]
as §6, §7

[1] = system: U87-luc orthotopic brain xenograft; test: Pharmacodynamic study in U87-luc orthotopic brain xenograft model, median survival; assay type: in vivo, BALB/c nude mice; settings: Temozolomide 3 mg/kg IP Day 0, 7, 14, 21 and 28; survival time range in brackets
Text: Pharmacodynamic study of the compound 17 of this disclosure and the combination of compound 17 of the disclosure and temozolomide in a U87-luc orthotopic brain xenograft model
Adult female BALB/c nude mice were used as test animals. A U87-luc orthotopic brain xenograft model was used to study the effect of representative compound 17 of this disclosure on the median survival of female BALB/c nude mice after intragastric administration.
Healthy adult female BALB/c nude mice, 8 mice/group, 6-8 weeks old, weighing 18-22 g, purchased from Shanghai SIPPR-BK Laboratory Animal Co., Ltd., Animal Production License No: 2008001658261; 2008001658263. • 7.2.3 Preparation of the test compounds
An appropriate amount of compound 17 was weighed, and added with 0.1% hydroxyethyl cellulose/0.5% TWEEN®80 as vehicle to 0.3125 mg/ml;
An appropriate amount of Temozolomide sample was weighed, and added with 0.1% CMC-Na+0.25% TWEEN®80 as vehicle to 0.3 mg/ml.
Adult female BALB/c nude mice were anesthetized by intraperitoneal injection of sodium pentobarbital at a dose of 80 mg/kg. To relieve pain, animals were injected subcutaneously with buprenorphine at the time points 30 minutes before operation and 6 hours after operation at a dose of 0.1 mg/kg. Animals were observed after anesthesia until all animals had awakened.
The anesthetized animals were properly fixed, the animals' head skin was sterilized with 70% ethanol, and an approximately 10 mm long incision was made on the right side of the midline from the forehead to the ear line. 3×10^5 U87-luc cells (3 μl, mixture of PBS and Matrigel at a ratio of 4:1) were inoculated at the right frontal lobe that is 2 mm away from the right side of the bregma and is 1 mm away from the front side of the coronal suture in each animal. The incision was sutured with a No. 6 suture, and sterilized with polyvinylpyrrolidone. Animals are kept warm until anabiosis. Six days after tumor cell transplantation, tumor animals were grouped by stratified randomization based on […] signal intensity values, and the average bioluminescence reached 2.812E+07 photons/sec when the groups were administered in groups. Different animal groups were administered at different doses for a total of 35 days.

IC50 (CDK6/CyclinD3) [nM]	CDK1/CDK6 (CDK6/CyclinD3)	CDK9/CDK6 (CDK6/CyclinD3)	Pim-1/CDK6 (CDK6/CyclinD3)	IC50 (Pim-1) [nM]	IC50 (CDK9/CyclinD3) [nM]	IC50 (CDK1/CyclinA2) [nM]	Compound	IC50 (CDK4/CyclinE1) [nM]	Medium survival [1]
20.4	13.13	0.71	8.51	174	14.4	268	CCN1CCN(Cc2ccc(Nc3ncc(F)c(-c4ccc5c(c4)C4(CCCC4)C(C)=N5)n3)nc2)CC1 [Example 9, N-(5-((4-ethylpiperazin-1-yl)methyl)pyridin-2-yl)-5-fluoro-4-(2′-methylspiro [cyclopentane-1,3′-indol]-5′-yl)pyrimidine-2-amino]		
0.39	838.46	6.56	5.69	2.22	2.56	327	CC1=Nc2c(F)cc(-c3nc(Nc4ccc(C5CCNCC5)cn4)ncc3F)cc2C12CCCC2 [Example 13, 5-Fluoro-4-(7′-fluoro-2′-methylspiro[cyclopentane-1,3′-indol]-5′-yl)-N-(5-(piperidin-4-yl)pyridin-2-yl)pyrimidine-2-amino]		
							Cn1nnc2c(C(N)=O)ncn2c1=O [Temozolomide, reference compound]		47(38-83) days

Compound	IC50 (CDK6/CyclinD3) [nM]	CDK1/CDK6 (CDK6/CyclinD3)	CDK9/CDK6 (CDK6/CyclinD3)	Pim-1/CDK6 (CDK6/CyclinD3)	IC50 (Pim-1) [nM]	IC50 (CDK9/CyclinD3) [nM]	IC50 (CDK1/CyclinA2) [nM]	IC50 (CDK4/CyclinE1) [nM]	Medium survival [1]
CC1=Nc2c(F)cc(-c3nc(Nc4ccc(N5CCNCC5)cn4)ncc3F)cc2C12CCCC2 [Example 6, 5-fluoro-4-(7′-fluoro-2′-methylspiro[cyclopentane-1,3′-indol]-5′-yl)-N-(5-(piperazin-1-yl)pyridin-2-yl)pyrimidine-2-amino]	6.45	23.59	0.06	2.33	15.1	0.42	152	80.9	
